Measured values from article PMC7400446, “Antimicrobial and Antifungal Activity of Rare Substituted 1,2,3-Thiaselenazoles and Corresponding Matched Pair 1,2,3-Dithiazoles” (Antibiotics, 2020).
≈ marks a conversion by molar mass, not a printed value.

What was measured:
[1] = tested on: L1210; design: method as in PMID 19036587, PMID 23010140, PMID 28709952; conditions: cited from earlier work
[2] = tested on: K562; design: method as in PMID 19036587, PMID 23010140, PMID 28709952; conditions: cited from earlier work
[3] = tested on: ASCT2 Transport; design: method as in PMID 19036587, PMID 23010140, PMID 28709952; conditions: cited from earlier work
[4] = tested on: L. monocytogenes; design: method as in PMID 19036587, doi:10.1016/0960-894X(96)00062-5, doi:10.1016/0960-894X(96)00423-4, doi:10.1016/S0223-5234(98)80040-8; conditions: cited from earlier work
[5] = tested on: E. faecalis; design: method as in PMID 19036587, doi:10.1016/0960-894X(96)00062-5, doi:10.1016/0960-894X(96)00423-4, doi:10.1016/S0223-5234(98)80040-8; conditions: cited from earlier work
[6] = tested on: S. aureus; design: method as in PMID 19036587, doi:10.1016/0960-894X(96)00062-5, doi:10.1016/0960-894X(96)00423-4, doi:10.1016/S0223-5234(98)80040-8; conditions: cited from earlier work
[7] = tested on: C. neoformans; design: method as in earlier work; conditions: cited from earlier work
[8] = tested on: C. neoformans (Strain ATCC 208821, H99 Type strain); assay: Antifungal assay, MIC; format: cell-based, Cryptococcus neoformans var. grubii
Experimental: (§1) Fungi strains C. albicans (Strain ATCC 90028, CLSI reference) and C. neoformans (Strain ATCC 208821, H99 Type strain), were cultured for 3 days on Yeast Extract-Peptone Dextrose (YPD) agar at 30 °C. A yeast suspension of 1 × 10^6 to 5 × 10^6 CFU/mL (as determined by OD530) was prepared from five colonies. The suspension was subsequently diluted and added to each well of the compound-containing plates giving a final cell density of fungi suspension of 2.5 × 10^3 CFU/mL and a total volume of 50 μL. All plates were covered and incubated at 35 °C for 36 h without shaking.
(§2) Analysis: Growth inhibition of C. albicans was determined measuring absorbance at 630 nm (OD630), while the growth inhibition of C. neoformans was determined measuring the difference in absorbance between 600 and 570 nm (OD600–570), after the addition of resazurin (0.001% final concentration) and incubation at 35 °C for 2 h. The absorbance was measured using a Biotek Multiflo Synergy HTX plate reader. In both cases, the percentage of growth inhibition was calculated for each well, using the negative control (media only) and positive control (fungi without inhibitors) on the same plate. […] Due to a higher variance in growth and inhibition, a lower threshold was applied to the data for C. neoformans.

[9] = tested on: haemolytic activity; assay: Haemolysis assay; format: cell-based
Experimental: Hc10 (concentration at 10% haemolytic activity) was calculated by curve fitting the inhibition values vs. log(concentration) using a Sigmoidal dose-response function, with variable values for bottom, top and slope. The curve fitting is implemented using Pipeline Pilot’s dose-response component (giving similar results to similar tools such as GraphPad’s Prism and IDBS’s XlFit). […] DMax represents the highest percentage inhibition response for all concentrations tested. […] In addition, the value indicates if samples have been active, but curve fitting failed, mostly because only the single highest concentration was active.

[10] = tested on: HEK293 cells; assay: Cytotoxicity assay (resazurin); format: cell-based
Experimental: (§3) HEK293 cells were counted manually in a Neubauer haemocytometer and then plated in the 384-well plates containing the compounds to give a density of 6000 cells/well in a final volume of 50 μL. DMEM supplemented with 10% FBS was used as growth media and the cells were incubated together with the compounds for 20 h at 37 °C in 5% CO2. Analysis: Cytotoxicity (or cell viability) was measured by fluorescence, ex: 560/10 nm, em: 590/10 nm (F560/590), after addition of 5 μL of 25 μgmL^−1 Resazurin (2.3 μgmL^−1 final concentration) and after incubation for further 3h at 37 °C in 5% CO2. The fluorescence intensity was measured using a Tecan M1000 Pro monochromator plate reader, using automatic gain calculation CC50 (concentration at 50% cytotoxicity) were calculated by curve fitting the inhibition values vs. log(concentration) using sigmoidal dose-response function, with variable fitting values for bottom, top and slope.

[11] = tested on: C. albicans (Strain ATCC 90028, CLSI reference); assay: Antifungal assay, MIC; format: cell-based, Candida albicans
Experimental: as §1, §2

[12] = tested on: Staphylococcus aureus, Acinetobacter baumannii, Candida albicans and Cryptococcus neoformans var. grubii; assay: Initial antimicrobial screen (CO-ADD); format: cell-based; conditions: 10 μM; Active / Inactive
From the text: We then screened this series of 1,2,3-dithiazoles and 1,2,3-thiaselenazoles (8−15) against Staphylococcus aureus, Acinetobacter baumannii, Candida albicans and Cryptococcus neoformans var. grubii (Table 1) as part of the Community for Antimicrobial Drug Discovery (CO-ADD) initiative to develop new lead compounds [51]. These represent three distinct classes of microbes. Staphylococcus aureus (ATCC 43300) is a gram-positive bacterium derived from the super bug methicillin-resistant Staphylococcus aureus (MRSA). Acinetobacter baumannii (ATCC 19606) is a gram-negative bacterium hospital-derived infection with very few antibiotics that can treat this pathogen. Candida albicans (ATCC 90028) and Cryptococcus neoformans var. grubii (ATCC 208821) are both opportunistic fungi. These fungal pathogens are particularly dangerous for patients in hospital with immunodeficiencies, undergoing cancer chemotherapy and organ transplantation. These strains are considered by the World Health Organization (WHO) to be the highest priority to develop novel antibiotics for control of these bacteria and fungi. These are some of the most difficult to treat, particularly in a hospital setting where sepsis and pneumonia can quickly overcome the body’s immune system.
The 1,2,3-thiaselenazole analog (13) was potent on against three of the four pathogens with a similar profile to 9a without the activity on A. baumannii.
Antimicrobial screening was performed by CO-ADD (The Community for Antimicrobial Drug Discovery), Australia.
(§4) All bacteria, S. aureus (Strain ATCC 43300, MRSA), E. coli (Strain ATCC 25922, FDA control strain), K. pneumoniae (Strain ATCC 700603, MDR), A. baumannii (Strain ATCC 19606, Type strain), P. aeruginosa (Strain ATCC 27853, Quality control strain), were cultured in Cation-adjusted Mueller Hinton broth (CAMHB) at 37 °C overnight. A sample of each culture was then diluted 40-fold in fresh broth and incubated at 37 °C for 1.5–3 h. The resultant mid-log phase cultures were diluted (CFU/mL measured by OD600), then added to each well of the compound containing plates, giving a cell density of 5 × 10^5 CFU/mL and a total volume of 50 μL. All the plates were covered and incubated at 37 °C for 18 h without shaking.
(§5) Analysis: Inhibition of bacterial growth was determined measuring absorbance at 600 nm (OD600), using a Tecan M1000 Pro monochromator plate reader. The percentage of growth inhibition was calculated for each well, using the negative control (media only) and positive control (bacteria without inhibitors) on the same plate as references. […]
Fungi strains C. albicans (Strain ATCC 90028, CLSI reference) and C. neoformans (Strain ATCC 208821, H99 Type strain), were cultured for 3 days on Yeast Extract-Peptone Dextrose (YPD) agar at 30 °C. A yeast suspension of 1 × 10^6 to 5 × 10^6 CFU/mL (as determined by OD530) was prepared from five colonies. The suspension was subsequently diluted and added to each well of the compound-containing plates giving a final cell density of fungi suspension of 2.5 × 10^3 CFU/mL and a total volume of 50 μL. All plates were covered and incubated at 35 °C for 36 h without shaking. […]

[13] = tested on: S. aureus (Strain ATCC 43300, MRSA); assay: Antibacterial assay, MIC; format: cell-based, Staphylococcus aureus; conditions: Staphylococcus aureus; ATCC 43300 (MRSA); MIC = lowest concentration with inhibition ≥80%
Experimental: as §4, §5

[14] = tested on: A. baumannii (Strain ATCC 19606, Type strain); assay: Antibacterial assay, MIC; format: cell-based, Acinetobacter baumannii; conditions: Acinetobacter baumannii, ATCC19606; ATCC 19606; MIC = lowest concentration with inhibition ≥80%
Experimental: as §4, §5

[15] = Cytotoxicity assay (resazurin); format: cell-based; conditions: human; HEK293 cells, 20 h; unit not given in Table 1; read-out: CC50 (concentration at 50% cytotoxicity)
Experimental: as §3

## N#Cc1cnn(CCc2ccccc2)c1/N=c1/ssnc1Cl [Compound 1]
[1]
  IC50: 5 µM
[2]
  IC50: 3 µM

## N#Cc1ncn(CCc2ccccc2)c1/N=c1/ssnc1Cl [Compound 2]
[1]
  IC50: 3 µM
[2]
  IC50: 4 µM

## FC(F)(F)Oc1ccc(/N=c2/ssnc2Cl)cc1Cl [Compound 3]
[3]
  IC50: 8.1 µM

## Clc1nss/c1=N/c1ccccc1 [Compound 4]
[4]
  MIC L. monocytogenes: 16 µg/mL (≈ 70 µM)
[5]
  MIC E. faecalis: 16 µg/mL (≈ 70 µM)
[6]
  MIC S. aureus: 16 µg/mL (≈ 70 µM)

## COc1ccccc1/N=c1/ssnc1Cl [Compound 5]
[4]
  MIC L. monocytogenes: 16 µg/mL (≈ 61.8 µM)
[5]
  MIC E. faecalis: 16 µg/mL (≈ 61.8 µM)

## N#Cc1ccccc1/N=c1/ssnc1Cl [Compound 6]
[7]
  MIC C. neoformans: 8 µg/mL (≈ 31.5 µM)

## COc1ccc(/N=c2/ssnc2Cl)cc1 [Compound 7]
[7]
  MIC C. neoformans: 8 µg/mL (≈ 30.9 µM)

## c1ccc(-c2c3ssnc-3c3ccccc23)cc1 [Compound 8a]
[8]
  Activity against C. neoformans (in words): antifungal selective
[9]
  Haemolysis (in words): no toxicity or haemolysis
[10]
  Toxicity (in words): no toxicity or haemolysis
[11]
  Activity against C. albicans (in words): antifungal selective
[12]
  Initial Screen: Inactive

## c1ccc2c(c1)N=C1S[Se]N=C1O2 [Compound 15, Benzo[b][1,2,3]thiaselenazolo[5,4-e][1,4]oxazine]
[13]
  MIC: > 32 µg/mL
[8]
  Activity against C. neoformans (in words): recovered some antifungal activity
[8]; Cryptococcus neoformans, ATCC208821, ATCC 208821, inhibition ≥70% (method)
  MIC: 2 µg/mL
[9]; unit not given
  Hc10 (concentration at 10% haemolytic activity): >32
[14]
  MIC: > 32 µg/mL
other
  melting point: 178 to 180 °C
[15]
  CC50 at 20 h: > 32 µg/mL
[10]
  Toxicity (in words): no toxicity
[11]
  Activity against C. albicans (in words): recovered some antifungal activity
[11]; Candida albicans, ATCC90028, ATCC 90028, inhibition ≥80%
  MIC: ≤ 0.25 µg/mL
